This experiment deals with T1, Tyrosine-protein phosphatase non-receptor type 1 (Homo sapiens, UniProt P18031).
T1 sequence (P18031 whole entry): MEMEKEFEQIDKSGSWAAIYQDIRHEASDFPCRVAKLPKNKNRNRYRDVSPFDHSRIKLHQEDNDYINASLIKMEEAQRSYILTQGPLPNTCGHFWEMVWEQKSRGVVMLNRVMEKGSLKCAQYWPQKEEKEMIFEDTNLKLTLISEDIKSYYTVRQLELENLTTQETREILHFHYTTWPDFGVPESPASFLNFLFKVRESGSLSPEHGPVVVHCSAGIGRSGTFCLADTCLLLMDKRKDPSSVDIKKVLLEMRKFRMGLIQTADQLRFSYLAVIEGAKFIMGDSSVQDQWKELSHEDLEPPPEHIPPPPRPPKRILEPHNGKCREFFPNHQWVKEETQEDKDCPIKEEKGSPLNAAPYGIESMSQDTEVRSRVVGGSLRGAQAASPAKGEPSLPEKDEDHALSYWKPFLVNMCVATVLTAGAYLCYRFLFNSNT
As to the kind of experiment: The inhibitory activity tested against human Protein-tyrosine phosphatase 1B enzyme.
Consider `CC(C)=CCc1cc(-c2oc3cc(O)cc(O)c3c(=O)c2O)cc(O)c1O`, for which the IC50 (in general, the midpoint of a concentration-inhibition curve) is 21.5 µM. This lies in the double-digit micromolar range.
For the compound `C=CC(C)(C)c1c(O)cc(O)c2c(=O)c(O)c(-c3cc(O)c(O)c(CC=C(C)C)c3)oc12`, inhibition was half-maximal at 4.3 µM (IC50). Against the preceding compound, the IC50 is about 5-fold lower.
As for `CC(C)=CCc1cc(C2CCc3ccc(O)cc3O2)cc(O)c1O` (centres undefined), the IC50 came out at 41.5 µM.
The compound `CC(C)=CCc1cc(C(=O)/C=C/c2ccc(O)c(O)c2)c(O)cc1O` [BROUSSOCHALCONE A] showed an IC50 of 36.8 µM.

The values above are taken from ChEMBL document CHEMBL1134982, “Natural PTP1B inhibitors from Broussonetia papyrifera” (Bioorg Med Chem Lett, 2002).
